Measurements: patent US20250296909A1, “NOVEL BENZENE DERIVATIVE AND IMMUNOSUPPRESSION-RELATED USE THEREOF” (PROVIBIO CO., LTD., priority 2021, published 2025)

What was measured:
spleen T cells [1] = test: Cytokine secretion by anti-CD3/CD28-activated T cells (Cytometric Bead Array); format: cell-based, C57BL/6 mice; settings: 30 μM
Experimental: To confirm the effect of compounds of the present invention on the secretion of cytokines by T cells, the following experiment was conducted.
Spleens were harvested and minced from C57BL/6 mice at 7 weeks of age, and single cells were isolated using a strainer (40 μm pore size, SPL). Red blood cells were removed using ACK (Ammonium-Chloride-Potassium) lysis buffer to isolate only leukocytes. These were then reacted with 10 v/v % CD90.2 microbeads (130-121-278, Miltenyi Biotech.) at 4° C. for 20 minutes, resulting in the isolation of spleen T cells from magnetic-based purification. The T cells were cultured in a 96-well plate at an amount of 2×10^5 cells/well. For T cell activation, each well was treated with anti-CD3/CD28 antibodies at a concentration of 1 μg/mL. Subsequently, Vehicle (DMSO) and compounds (Compound 14, Compound 19, Compound 26, Compound 31, Compound 35, Compound 40, Compound 41, Compound 56, Compound 69, Compound 75) at a concentration of 30 μM were treated in each well, and it was cultured at 37° C. in a 5% CO2 incubator. After 24 and 72 hours, the T cell culture medium was taken, and centrifugation was performed at 13,000 rpm for 10 minutes to obtain the supernatant.
To measure the concentration of cytokines present in the T cell culture medium, Mouse Th1/Th2/Th17 Cytokine CBA Kit (Cytometric Bead Array kit) 560485 from BD Science was utilized for flow cytometry analysis. The secretion levels of IL-2 at 24 hours after each drug treatment, and IFN-γ, TNF-α, and IL-17A at 72 hours were measured after each drug treatment.

[2] = test system: T lymphocyte cell line Jurkat E6-1; test: Cytotoxicity experiment (CCK-8, relative cell survival); format: cell-based; settings: 24 hours, untreated cells = 100%
How it was run: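 Relative survival versus untreated cells (set to 100%) from CCK-8 absorbance at 450 nm after 2 h dye incubation. Cells had been treated with graded compound concentrations for 24 h at 37 °C in 5% CO2, cultured in RPMI-1640 plus 10% FBS.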

spleen T cells [3] = test: T cell proliferation inhibition (CFSE, FACS), CD3/CD28-activated spleen T cells; format: cell-based, C57BL/6 mice
How it was run: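 Proliferation inhibition is expressed as a percentage versus CD3/CD28-stimulated DMSO controls, from CFSE dye dilution measured by FACS after 3 days at 37 °C. Compounds at 10, 30 and 50 μM (triplicate) on anti-CD3/CD28-activated (0.5 μg/mL each) C57BL/6 mouse spleen T cells, 2×10^5 per well.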

## CCCCCCCCCCCCNC(=O)c1cccnc1N [Compound 69]
Spleen T cells [1]; 24 hours after treatment, FIG. 3
  secretion of IL-2: significant decrease
Spleen T cells [1]; 72 hours after treatment
  secretion of IFN-γ: significant decrease
  secretion of IL-17A: significant decrease
  secretion of TNF-α: significant decrease
[2]; 10 μM
  Relative cell survival rate (%): 95%
[2]; 20 μM
  Relative cell survival rate (%): 94%
[2]; 30 μM
  Relative cell survival rate (%): 88%
[2]; 50 μM
  Relative cell survival rate (%): 84%
Spleen T cells [3]; Mus musculus, T-cell, 72 h, Table 2, 10 μM, 3 days, relative to CD3/CD28+DMSO, read-out: Proliferation inhibition rate (%)
  inhibition at 10 µM: 99%
Spleen T cells [3]; Mus musculus, T-cell, 72 h, Table 2, 30 μM, 3 days, relative to CD3/CD28+DMSO, read-out: Proliferation inhibition rate (%)
  inhibition at 30 µM: 100%
Spleen T cells [3]; Mus musculus, T-cell, 72 h, Table 2, 50 μM, 3 days, relative to CD3/CD28+DMSO, read-out: Proliferation inhibition rate (%)
  inhibition at 50 µM: 100%
Spleen T cells [3]; concentrations ranging from 10 to 30 μM
  cell proliferation read by FACS (FIG. 2): inhibition of cell proliferation
